Experimental data from patent US9914737B2, “Triazolopyrimidinone or triazolopyridinone derivatives, and use thereof” (ST PHARM CO., LTD., priority 2014, dated 2018).
Structures can show the parent of a compound that is named as a salt.

target: T1, tankyrase 1 (Homo sapiens, UniProt O95271); test: Analysis of activity of tankyrase 1 (Trevigen kit, ELISA absorbance at 450 nm); assay type: biochemical; details: not given
T1 construct: purchased Trevigen 4700-096-K
T1 sequence (O95271 1-1327): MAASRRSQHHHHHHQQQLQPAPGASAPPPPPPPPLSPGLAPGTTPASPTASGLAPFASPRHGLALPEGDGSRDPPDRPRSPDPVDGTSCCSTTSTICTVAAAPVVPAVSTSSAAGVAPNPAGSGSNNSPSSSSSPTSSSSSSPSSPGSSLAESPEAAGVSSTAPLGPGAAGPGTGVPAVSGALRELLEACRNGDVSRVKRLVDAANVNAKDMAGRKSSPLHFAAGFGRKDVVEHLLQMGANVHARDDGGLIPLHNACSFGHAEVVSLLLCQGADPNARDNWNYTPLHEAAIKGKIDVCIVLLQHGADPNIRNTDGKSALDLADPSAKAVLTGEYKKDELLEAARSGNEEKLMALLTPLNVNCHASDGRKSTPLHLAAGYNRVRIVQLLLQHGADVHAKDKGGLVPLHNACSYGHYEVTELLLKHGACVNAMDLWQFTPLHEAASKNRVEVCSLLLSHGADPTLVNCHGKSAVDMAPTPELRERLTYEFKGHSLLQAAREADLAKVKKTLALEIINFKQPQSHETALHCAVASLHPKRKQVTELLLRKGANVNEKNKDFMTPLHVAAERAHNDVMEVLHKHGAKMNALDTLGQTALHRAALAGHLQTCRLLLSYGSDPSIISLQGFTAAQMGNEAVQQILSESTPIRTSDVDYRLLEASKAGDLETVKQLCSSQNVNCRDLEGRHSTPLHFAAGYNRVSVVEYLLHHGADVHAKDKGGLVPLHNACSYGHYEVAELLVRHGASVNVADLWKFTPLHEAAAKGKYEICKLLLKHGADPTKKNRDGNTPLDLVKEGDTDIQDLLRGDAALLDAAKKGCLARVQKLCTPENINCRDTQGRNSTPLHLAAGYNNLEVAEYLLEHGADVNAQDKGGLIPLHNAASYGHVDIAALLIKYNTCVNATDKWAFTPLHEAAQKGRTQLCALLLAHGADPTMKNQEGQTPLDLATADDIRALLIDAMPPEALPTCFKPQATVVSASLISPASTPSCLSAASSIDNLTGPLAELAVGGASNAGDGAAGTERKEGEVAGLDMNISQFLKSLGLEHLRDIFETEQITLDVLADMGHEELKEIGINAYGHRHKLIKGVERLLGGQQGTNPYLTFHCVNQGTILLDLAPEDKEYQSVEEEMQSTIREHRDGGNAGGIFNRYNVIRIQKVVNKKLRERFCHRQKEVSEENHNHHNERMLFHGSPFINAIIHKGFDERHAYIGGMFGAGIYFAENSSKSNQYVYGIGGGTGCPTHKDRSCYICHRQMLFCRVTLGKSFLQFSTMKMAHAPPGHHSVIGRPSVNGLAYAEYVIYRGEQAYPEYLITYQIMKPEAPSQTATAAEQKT
Experimental: Activities of novel compounds synthesized according to Examples 1 to 72 against tankyrase 1 were analyzed using a Trevigen kit (Cat. No. 4700-096-K). Poly PAR histone protein-coated 96-well plate, anti-PAR monoclonal antibody and goat anti-mouse IgG-HRP were used for measurement of absorbance by ELISA method. Specifically, 20× I-PAR assay buffer was diluted to 1× by adding water, and 50 μL of the diluted buffer was added to each well of the 96-well plate followed by reacting at rt for 30 min. Then, the supernatant was completely removed from each well and 10 μL of 1× I-PAR assay buffer and 15 μL of assay substrate were added to each well along with 1 μL of a 50× solution of inhibitors to be tested, which were the compounds obtained in the Examples 1 to 72. 10 mUnits/μL of tankyrase 1 enzyme was diluted 50-fold with 1× I-PAR assay buffer and 25 μL of the diluted enzyme was added to each well and reacted while stirring at rt for 30 min. One without any compound of the present invention was used as a positive control and another containing 1× I-PAR assay buffer with the same volume instead of tankyrase 1 enzyme was used as a negative control. Upon completion of the reaction, 200 μL of PBSX, which was prepared by adding 0.1% triton X-100 to PBS, was added and removed and this washing process was repeated twice. Washing was repeated twice more using PBS in the same manner. 5× antibody diluent was diluted with distilled water to 1× concentration, 50 μL of the diluted goat anti-mouse IgG-HRP to 1/2000 was added to each well and reacted while stirring at rt for 30 min. Washes were carried out twice using PBSX and PBS, respectively. After adding 50 μL of TACS-sapphire to each well of the plate, the plate was blocked from light to react for 10 min to 15 min and the color of the reaction solution turned blue. To stop the reaction, 50 μL of 0.2N HCl was added to turn the solution yellow. Finally, the absorbance of the resulting solution was measured at 450 nm.

Row | IC50 | SMILES
1 | 0.0667 µM | Cn1nnc2c(=O)[nH]c(N3CCN(c4ccccc4F)CC3)nc21 [compound 1, 5-(4-(2-Fluorophenyl)piperazin-1-yl)-3-methyl-3H-[1,2,3]triazolo[4,5-d]pyrimidin-7(6H)-one]
2 | 0.0299 µM | COCCOc1cc(F)c(N2CCN(c3nc4c(nnn4C)c(=O)[nH]3)CC2)c(F)c1 [compound 2, 5-(4-(2,6-Difluoro-4-(2-methoxyethoxy)phenyl)piperazin-1-yl)-3-methyl-3H-[1,2,3]triazolo[4,5-d]pyrimidin-7(6H)-one]
3 | 0.0609 µM | CC(C)Oc1cc(F)c(N2CCN(c3nc4c(nnn4C)c(=O)[nH]3)CC2)c(F)c1 [compound 9, 5-(4-(2,6-Difluoro-4-isopropoxyphenyl)piperazin-1-yl)-3-methyl-3H-[1,2,3]triazolo[4,5-d]pyrimidin-7(6H)-one]
4 | 0.0247 µM | Cn1nnc2c(=O)[nH]c(N3CCN(c4c(F)cc(OC5COC5)cc4F)CC3)nc21 [compound 15, 5-(4-(2,6-Difluoro-4-(oxetan-3-yloxy)phenyl)piperazin-1-yl)-3-methyl-3H-[1,2,3]triazolo[4,5-d]pyrimidin-7(6H)-one]
5 | 0.0089 µM | Cn1nnc2c(=O)[nH]c(N3CCN(c4c(F)cccc4F)CC3)nc21 [compound 21, 5-(4-(2,6-Difluorophenyl)piperazin-1-yl)-3-methyl-3H-[1,2,3]triazolo[4,5-d]pyrimidin-7(6H)-one]
6 | 0.0497 µM | Cn1nnc2c(=O)[nH]c(N3CCN(c4c(F)cc(F)cc4F)CC3)nc21 [compound 22, 3-Methyl-5-(4-(2,4,6-trifluorophenyl)piperazin-1-yl)-3H-[1,2,3]triazolo[4,5-d]pyrimidin-7(6H)-one]

same assay, conditions: tankyrase 1 enzyme, Trevigen kit Cat. No. 4700-096-K, 30 min at rt; read-out: TNKS1 (IC50)

Row | IC50 | SMILES
7 | 0.207 µM | Cn1nnc2c(=O)[nH]c(N3CCN(c4c(F)cc(OCc5ccccc5)cc4F)CC3)nc21 [compound 3, 5-(4-(4-(Benzyloxy)-2,6-difluorophenyl)piperazin-1-yl)-3-methyl-3H-[1,2,3]triazolo[4,5-d]pyrimidin-7(6H)-one]
8 | 0.0386 µM | Cn1nnc2c(=O)[nH]c(N3CCN(c4c(F)cc(OCCN5CCOCC5)cc4F)CC3)nc21 [compound 4, 5-(4-(2,6-Difluoro-4-(2-morpholinoethoxy)phenyl)piperazin-1-yl)-3-methyl-3H-[1,2,3]triazolo[4,5-d]pyrimidin-7(6H)-one]
9 | 0.0142 µM | Cn1nnc2c(=O)[nH]c(N3CCN(c4c(F)cc(OCCN5CCCCC5)cc4F)CC3)nc21 [compound 5, 5-(4-(2,6-Difluoro-4-(2-(piperidin-1-yl)ethoxy)phenyl)piperazin-1-yl)-3-methyl-3H-[1,2,3]triazolo[4,5-d]pyrimidin-7(6H)-one]
10 | 0.0163 µM | CN(C)CCOc1cc(F)c(N2CCN(c3nc4c(nnn4C)c(=O)[nH]3)CC2)c(F)c1 [compound 6, 5-(4-(4-(2-(Dimethylamino)ethoxy)-2,6-difluorophenyl)piperazin-1-yl)-3-methyl-3H-[1,2,3]triazolo[4,5-d]pyrimidin-7(6H)-one]
11 | 0.044 µM | Cn1nnc2c(=O)[nH]c(N3CCN(c4c(F)cc(OCCO)cc4F)CC3)nc21 [compound 7, 5-(4-(2,6-Difluoro-4-(2-hydroxyethoxy)phenyl)piperazin-1-yl)-3-methyl-3H-[1,2,3]triazolo[4,5-d]pyrimidin-7(6H)-one]
12 | 0.0469 µM | CC(=O)OCCOc1cc(F)c(N2CCN(c3nc4c(nnn4C)c(=O)[nH]3)CC2)c(F)c1 [compound 8, 2-(3,5-Difluoro-4-(4-(3-methyl-7-oxo-6,7-dihydro-3H-[1,2,3]triazolo[4,5-d]pyrimidin-5-yl)piperazin-1-yl)phenoxy)ethyl acetate]
13 | 0.032 µM | C[C@@H](N)C(=O)OCCOc1cc(F)c(N2CCN(c3nc4c(nnn4C)c(=O)[nH]3)CC2)c(F)c1 [compound 10, (R)-2-(3,5-difluoro-4-(4-(3-methyl-7-oxo-6,7-dihydro-3H-[1,2,3]triazolo[4,5-d]pyrimidin-5-yl)piperazin-1-yl)phenoxy)ethyl2-aminopropanoate hydrochloride]
14 | 0.0145 µM | C[C@H](N)C(=O)OCCOc1cc(F)c(N2CCN(c3nc4c(nnn4C)c(=O)[nH]3)CC2)c(F)c1 [compound 11, (S)-2-(3,5-difluoro-4-(4-(3-methyl-7-oxo-6,7-dihydro-3H-[1,2,3]triazolo[4,5-d]pyrimidin-5-yl)piperazin-1-yl)phenoxy)ethyl2-aminopropanoate hydrochloride]
15 | 0.0129 µM | Cn1nnc2c(=O)[nH]c(N3CCN(c4c(F)cc(OCC(O)CO)cc4F)CC3)nc21 (stereo not shown) [compound 12, 5-(4-(4-(2,3-Dihydroxypropoxy)-2,6-difluorophenyl)piperazin-1-yl)-3-methyl-3H-[1,2,3]triazolo[4,5-d]pyrimidin-7(6H)-one]
16 | 0.028 µM | Cn1nnc2c(=O)[nH]c(N3CCN(c4c(F)cc(CN5CCOCC5)cc4F)CC3)nc21 [compound 13, 5-(4-(2,6-Difluoro-4-(morpholinomethyl)phenyl)piperazin-1-yl)-3-methyl-3H-[1,2,3]triazolo[4,5-d]pyrimidin-7(6H)-one]
17 | 0.0415 µM | CN1CCN(Cc2cc(F)c(N3CCN(c4nc5c(nnn5C)c(=O)[nH]4)CC3)c(F)c2)CC1 [compound 14, 5-(4-(2,6-Difluoro-4-((4-methylpiperazin-1-yl)methyl)phenyl)piperazin-1-yl)-3-methyl-3H-[1,2,3]triazolo[4,5-d]pyrimidin-7(6H)-one]
18 | 0.0286 µM | Cn1nnc2c(=O)[nH]c(N3CCN(c4c(F)cc(OC(CO)CCl)cc4F)CC3)nc21 (stereo not shown) [compound 16, 5-(4-(4-(1-Chloro-3-hydroxypropan-2-yloxy)-2,6-difluorophenyl)piperazin-1-yl)-3-methyl-3H-[1,2,3]triazolo[4,5-d]pyrimidin-7(6H)-one]
19 | 0.0176 µM | CC(O)c1cc(F)c(N2CCN(c3nc4c(nnn4C)c(=O)[nH]3)CC2)c(F)c1 (stereo not shown) [compound 17, 5-(4-(2,6-Difluoro-4-(1-hydroxyethyl)phenyl)piperazin-1-yl)-3-methyl-3H-[1,2,3]triazolo[4,5-d]pyrimidin-7(6H)-one]
20 | 0.03 µM | COC(C)c1cc(F)c(N2CCN(c3nc4c(nnn4C)c(=O)[nH]3)CC2)c(F)c1 (stereo not shown) [compound 18, 5-(4-(2,6-Difluoro-4-(1-methoxyethyl)phenyl)piperazin-1-yl)-3-methyl-3H-[1,2,3]triazolo[4,5-d]pyrimidin-7(6H)-one]
21 | 0.08 µM | Cn1nnc2c(=O)[nH]c(N3CCN(c4c(F)cc(OCCCCCC(=O)O)cc4F)CC3)nc21 [compound 19, 6-(3,5-Difluoro-4-(4-(3-methyl-7-oxo-6,7-dihydro-3H-[1,2,3]triazolo[4,5-d]pyrimidin-5-yl)piperazin-1-yl)phenoxy)hexanoic acid]
22 | 0.0831 µM | COCCN(C)Cc1cc(F)c(N2CCN(c3nc4c(nnn4C)c(=O)[nH]3)CC2)c(F)c1 [compound 20, 5-(4-(2,6-Difluoro-4-(((2-methoxyethyl)(methyl)amino)methyl)phenyl)piperazin-1-yl)-3-methyl-3H-[1,2,3]triazolo[4,5-d]pyrimidin-7(6H)-one]
